≈ marks a conversion by molar mass, not a printed value. Read-outs that look alike come from different tables or passages of the source.
Columns and labels:
[1] = test system: V84 (penicillin resistant Staphylococcus); assay: Antibiotic activity (MIC), Gradient Plate in vitro method, V84; type: cell-based; conditions: read-out: Minimum Inhibitory Concentration
Excerpt: (§1) The antibiotic activity of the cephalosporin compounds of the present invention is illustrated by the data presented in Table I for representative compounds. The values in the table are the minimum inhibitory concentrations (MIC) for the test compounds against the indicated microorganisms. The MIC values were obtained in the Gradient Plate in vitro method for determining antibiotic activity.
(§2) ^1 Test organisms V41, V32, and V84 are penicillin resistant

Pseudomonas Aeruginosa = assay: Antibiotic activity (MIC), Gradient Plate in vitro method, Pseudomonas Aeruginosa; type: cell-based; conditions: read-out: Minimum Inhibitory Concentration
Excerpt: (§3) The values in the table are the minimum inhibitory concentrations (MIC) for the test compounds against the indicated microorganisms. The MIC values were obtained in the Gradient Plate in vitro method for determining antibiotic activity.

Titration (pKa) = type: physicochemical; conditions: 66% dmf-34% h2o, titration (66% DMF-34% H2O)
Salmonella heidelberg = assay: Antibiotic activity (MIC), Gradient Plate in vitro method, Salmonella heidelberg; type: cell-based; conditions: Salmonella enterica, read-out: Minimum Inhibitory Concentration
Excerpt: as §3

[2] = test system: V41 (penicillin resistant Staphylococcus); assay: Antibiotic activity (MIC), Gradient Plate in vitro method, V41; type: cell-based; conditions: read-out: Minimum Inhibitory Concentration
Excerpt: as §1, §2

Aerobacter Aerogenes = assay: Antibiotic activity (MIC), Gradient Plate in vitro method, Aerobacter Aerogenes; type: cell-based; conditions: Klebsiella aerogenes, read-out: Minimum Inhibitory Concentration
Excerpt: as §3

Escherichia coli = assay: Antibiotic activity (MIC), Gradient Plate in vitro method, Escherichia coli; type: cell-based; conditions: read-out: Minimum Inhibitory Concentration
Excerpt: as §3

[3] = test system: V32 (penicillin resistant Staphylococcus); assay: Antibiotic activity (MIC), Gradient Plate in vitro method, V32; type: cell-based; conditions: read-out: Minimum Inhibitory Concentration
Excerpt: as §1, §2

Shigella sp. = assay: Antibiotic activity (MIC), Gradient Plate in vitro method, Shigella sp.; type: cell-based; conditions: read-out: Minimum Inhibitory Concentration
Excerpt: as §1

Serratia marcescens = assay: Antibiotic activity (MIC), Gradient Plate in vitro method, Serratia marcescens; type: cell-based; conditions: read-out: Minimum Inhibitory Concentration
Excerpt: as §1

[4] = test system: X466 (methicillin resistant Staphylococcus); assay: Antibiotic activity (MIC), Gradient Plate in vitro method, X466; type: cell-based; conditions: read-out: Minimum Inhibitory Concentration
Excerpt: as §1, with “activity. […]” for “activity.”

Klebsiella pneumoniae = assay: Antibiotic activity (MIC), Gradient Plate in vitro method, Klebsiella pneumoniae; type: cell-based; conditions: read-out: Minimum Inhibitory Concentration
Excerpt: as §3

[5] = Water solubility (inferred from low yield); type: physicochemical; conditions: inferred from low yield of aqueous isolation
[6] = first pKa, read-out: pKa (first value)
[7] = second pKa, read-out: pKa (second value)
[8] = Gradient Plate in vitro, V32, penicillin resistant Staphylococcus
[9] = Gradient Plate in vitro, V84, penicillin resistant Staphylococcus
[10] = third pKa, read-out: pKa (third value)
[11] = Gradient Plate in vitro, V41, penicillin resistant Staphylococcus

| SMILES | MIC ([1]; Staphylococcus) [µg/mL] | MIC (Pseudomonas Aeruginosa) [µg/mL] | pKa (Titration (pKa); [6]) | pKa (Titration (pKa); [7]) | MIC (Salmonella heidelberg) [µg/mL] | MIC ([2]; Staphylococcus) [µg/mL] | MIC (Aerobacter Aerogenes) [µg/mL] | MIC (Escherichia coli) [µg/mL] | MIC [3, 8] [µg/mL] | MIC (Shigella sp.) [µg/mL] | MIC (Serratia marcescens) [µg/mL] | MIC [4] [µg/mL] | MIC (Klebsiella pneumoniae) [µg/mL] | MIC ([3]; Staphylococcus) [µg/mL] | water solubility [5] | MIC [1, 9] [µg/mL] | pKa (Titration (pKa); [10]) | MIC [2, 11] [µg/mL] |
| --- | --- | --- | --- | --- | --- | --- | --- | --- | --- | --- | --- | --- | --- | --- | --- | --- | --- | --- |
| Cc1nnc(SCC2=C(C(=O)O)N3C(=O)C(NC(=O)[C@H](NC(=O)c4ccc(O)c(Cl)c4)c4ccc(O)cc4)C3SC2)s1 (stereo partly drawn) [Example 11, 7-[D-[2-(4-Hydroxyphenyl)-2-[(3-chloro-4-hydroxybenzoyl)-amino]acetyl]amino]-3-[[(5-methyl-1,3,4-thiadiazol-2-yl)-thio]methyl]-3-cephem-4-carboxylic acid] | 1 (≈ 1.54 µM) | 124 (≈ 191 µM) | 4.9 | 9.5 | 25 (≈ 38.6 µM) | 1 (≈ 1.54 µM) | 36.8 (≈ 56.8 µM) | 11.2 (≈ 17.3 µM) | 1.1 (≈ 1.7 µM) | 9.6 (≈ 14.8 µM) | 80 (≈ 123 µM) | 122 (≈ 188 µM) | 8.9 (≈ 13.7 µM) | – | – | – | – | – |
| Cc1nnc(SCC2=C(C(=O)O)N3C(=O)C(NC(=O)[C@H](NC(=O)c4ccc(O)cc4)c4ccc(O)cc4)C3SC2)s1 (stereo partly drawn) [Example 12, 7-[D-[2-(4-Hydroxyphenyl)-2-[(4-hydroxybenzoyl)amino]acetyl]-amino]-3-[[(5-methyl-1,3,4-thiadiazol-2-yl)thio]methyl]-3-cephem-4-carboxylic acid] | 1 (≈ 1.63 µM) | > 200 | – | – | 33 (≈ 53.8 µM) | 1 (≈ 1.63 µM) | 40 (≈ 65.2 µM) | 50 (≈ 81.5 µM) | – | 13.9 (≈ 22.6 µM) | > 200 | 84 (≈ 137 µM) | 29.5 (≈ 48.1 µM) | 1 (≈ 1.63 µM) | quite water soluble | – | – | – |
| Cc1nnc(SCC2=C(C(=O)O)N3C(=O)C(NC(=O)[C@H](NC(=O)c4cc(O)c(O)c(O)c4O)c4ccc(O)cc4)C3SC2)s1 (stereo partly drawn) [Example 14, 7-[D-[2-(4-Hydroxyphenyl)-2-[(2,3,4,5-tetrahydroxybenzoyl)amino]acetyl]amino]-3-[[(1-methyl-1,3,4-thiadiazol-2-yl)thio]methyl]-3-cephem-4-carboxylic acid] | – | 92 (≈ 139 µM) | 4.98 | 7.63 | 3 (≈ 4.53 µM) | – | 9.1 (≈ 13.8 µM) | 10.1 (≈ 15.3 µM) | 7.1 (≈ 10.7 µM) | 5.7 (≈ 8.61 µM) | > 200 | 134 (≈ 203 µM) | 5 (≈ 7.56 µM) | – | – | 6.2 (≈ 9.37 µM) | 9.69 | 7.2 (≈ 10.9 µM) |
| Cn1nnnc1SCC1=C(C(=O)O)N2C(=O)C(NC(=O)[C@H](NC(=O)c3cc(O)ccc3O)c3ccc(O)cc3)C2SC1 (stereo partly drawn) [Example 15, 7-[D-[2-(4-Hydroxyphenyl)-2-[(2,5-dihydroxybenzoyl)-amino]acetyl]amino]-3-[[(1-methyltetrazol-5-yl)thio]-methyl]-3-cephem-4-carboxylic acid] | – | > 200 | 5.08 | 11 | 17.8 (≈ 29 µM) | – | 43.5 (≈ 70.9 µM) | 28 (≈ 45.6 µM) | 13 (≈ 21.2 µM) | 26.5 (≈ 43.2 µM) | > 200 | > 200 | 32.2 (≈ 52.5 µM) | – | – | 10 (≈ 16.3 µM) | 12.5 | 15 (≈ 24.4 µM) |
| Cn1nnnc1SCC1=C(C(=O)O)N2C(=O)C(NC(=O)[C@H](NC(=O)c3cc(O)cc(O)c3)c3ccc(O)cc3)C2SC1 (stereo partly drawn) [Example 16, 7-[D-[2-(4-Hydroxyphenyl)-2-[(3,5-dihydroxybenzoyl)-amino]acetyl]amino]-3-[[(1-methyltetrazol-5-yl)thio]-methyl]-3-cephem-4-carboxylic acid] | – | > 200 | 5.22 | 11.7 | 8.1 (≈ 13.2 µM) | – | 22 (≈ 35.9 µM) | 16.5 (≈ 26.9 µM) | 1.9 (≈ 3.1 µM) | 9.8 (≈ 16 µM) | > 200 | 112 (≈ 183 µM) | 17.4 (≈ 28.4 µM) | – | – | 2.7 (≈ 4.4 µM) | ≥ 12 | 4.5 (≈ 7.33 µM) |
| Cn1nnnc1SCC1=C(C(=O)O)N2C(=O)C(NC(=O)[C@H](NC(=O)c3ccc(O)cc3O)c3ccc(O)cc3)C2SC1 (stereo partly drawn) [Example 17, 7-[D-[2-(4-Hydroxyphenyl)-2-[(2,4-dihydroxybenzoyl)-amino]-acetyl]amino]-3-[[(1-methyltetrazol-5-yl)thio]-methyl]-3-cephem-4-carboxylic acid] | – | 92 (≈ 150 µM) | 4.97 | 9.58 | 14 (≈ 22.8 µM) | 4 (≈ 6.52 µM) | 36 (≈ 58.7 µM) | 18 (≈ 29.3 µM) | 3.5 (≈ 5.7 µM) | 9.2 (≈ 15 µM) | > 200 | 102 (≈ 166 µM) | 15.5 (≈ 25.3 µM) | – | – | 2.4 (≈ 3.91 µM) | 12.1 | – |
| O=C(O)C1=C(Cl)CSC2C(NC(=O)[C@H](NC(=O)c3cccc(O)c3O)c3ccccc3)C(=O)N12 (stereo partly drawn) [Example 18, 7-[D-[2-Phenyl-2-[(2,3-dihydroxybenzoyl)amino]acetyl]-amino]-3-chloro-3-cephem-4-carboxylic acid] | – | > 200 | 4.55 | 3.84 | 1 (≈ 1.98 µM) | – | 50 (≈ 99.2 µM) | 82 (≈ 163 µM) | 21.5 (≈ 42.7 µM) | 18 (≈ 35.7 µM) | > 200 | > 200 | 7 (≈ 13.9 µM) | – | – | 14.2 (≈ 28.2 µM) | – | 24 (≈ 47.6 µM) |
| CC(=O)OCC1=C(C(=O)O)N2C(=O)C(NC(=O)C(NC(=O)c3cccc(O)c3O)c3ccccc3)C2SC1 [Example 19, 7-[D-[2-Phenyl-2-[(2,3-dihydroxybenzoyl)amino]acetyl]-amino]-3-acetoxymethyl-3-cephem-4-carboxylic acid] | – | 56 (≈ 103 µM) | 5 | 8.72 | 1 (≈ 1.85 µM) | – | > 200 | > 200 | 16.2 (≈ 29.9 µM) | 50 (≈ 92.3 µM) | > 200 | > 200 | 7.4 (≈ 13.7 µM) | – | – | 14.7 (≈ 27.1 µM) | – | 17 (≈ 31.4 µM) |
| NC(=O)OCC1=C(C(=O)O)N2C(=O)C(NC(=O)C(NC(=O)c3cccc(O)c3O)c3ccccc3)C2SC1 [Example 20, 7-[D-[2-Phenyl-2-[(2,3-dihydroxybenzoyl)amino]acetyl]-amino]-3-carbamoyloxymethyl-3-cephem-4-carboxylic acid] | – | 140 (≈ 258 µM) | 5.15 | 8.7 | 1 (≈ 1.84 µM) | – | 76 (≈ 140 µM) | 74 (≈ 136 µM) | 7.4 (≈ 13.6 µM) | 58 (≈ 107 µM) | > 200 | > 200 | 6.5 (≈ 12 µM) | – | – | 6.1 (≈ 11.2 µM) | – | 7.9 (≈ 14.6 µM) |
